Assay results published in PMC10313671, “Accelerating the prediction and discovery of peptide hydrogels with human-in-the-loop” (Nature Communications, 2023).
Where a SMILES comes first, the peptide text is derived from it.

What was measured:
[1] = Peptide hydrogel formation, vial-inverting method; format: physicochemical; design: key to EXP / GELATION: 0: no hydrogel; 1: hydrogel; settings: for State: ultrasonication, standing 48 h; for State / GELATION / hydrogel formation (in words): vial-inverting method; for Concentration: concentration at which the state was recorded: lowest of 30, 60, 90, 120 mM that gave a gel, 120 mM for non-gelating peptides; for GELATION: 1 = hydrogel, 0 = no hydrogel; for hydrogel formation (in words): representative hydrogels pH between 7.0 to 7.5
Experimental: After validating the efficiency of APHC in predicting tetrapeptide hydrogels, we detailed the phase state of 165 synthesized tetrapeptides and the observed assembly behavior in an aqueous solution.
This work defines hydrogel formation as a self-supporting, non-flowing mixture of water and hydrogelator by the vial-inverting method. All purified tetrapeptides were dissolved in ultrapure water (to form a 30 mM solution initially), followed by the stepwise addition of 1 N NaOH solution to adjust the overall aqueous pH to 6.5–8.5. Meanwhile, a short-term ultrasonication treatment was applied after each pH adjustment to facilitate peptide solubilization and speed up peptide self-assembly. […] The mixture was allowed to stand in for another 48 h for complete hydrogelation. Upon the absence of gelation phenomenon during the aforementioned loops, we increased the peptide concentration (60 mM, 90 mM, and 120 mM were selected) and re-started such gelation operation loop to explore their gelation feasibility.

[2] = Transmission electron microscope (negative staining) of peptide assemblies; settings: for Morphology: TEM, negative staining with uranyl acetate, 120 kV
Experimental: We used the negative staining technique to observe the morphologies formed by peptides. A micropipette was used to load 10 μL of sample solution to a carbon-coated copper grid, and we used a piece of filter paper to remove the excess solution. After rinsing the grid with the deionized water, we used uranyl acetate to stain the sample for 1 minute and then rinsed the grid with deionized water again.

[3] = 60 mM peptide in ultrapure water, pH 6.5-8.5 (1 N NaOH), no gel at 30 mM
[4] = 120 mM peptide (highest tested) in ultrapure water, pH 6.5-8.5 (1 N NaOH), precipitate, sol, suspension = no gel
[5] = 30 mM peptide in ultrapure water, pH adjusted to 6.5-8.5 with 1 N NaOH, concentration raised 30/60/90/120 mM until gelation

SMILES	Concentration [1] [µM]	State [1, 4]	GELATION ([1]; peptide concentration 120 mM)	Morphology ([2]; line of the table gives 120 mM)	also measured
CC(C)C[C@H](NC(=O)[C@H](CC(C)C)NC(=O)[C@@H](N)Cc1c[nH]cn1)C(=O)N[C@@H](Cc1ccccc1)C(=O)O [HLLF] (H-HLLF-OH)	90000	–	–	–	State ([1]; 90 mM peptide in ultrapure water, pH 6.5-8.5 (1 N NaOH), no gel at lower concentrations): gel; GELATION ([1]; peptide concentration 90 mM): 1; Morphology ([2]; line of the table gives 90 mM): sheet
CC[C@H](C)[C@H](N)C(=O)N[C@@H](Cc1ccccc1)C(=O)N[C@H](C(=O)N[C@@H](Cc1ccc(O)cc1)C(=O)O)[C@@H](C)CC [IFIY] (H-IFIY-OH)	60000	–	–	–	State [1, 3]: gel; GELATION ([1]; peptide concentration 60 mM): 1; Morphology ([2]; line of the table gives 60 mM): hybrid(particle+fibre)
CC[C@H](C)[C@H](N)C(=O)N[C@@H](Cc1ccccc1)C(=O)N[C@@H](Cc1ccc(O)cc1)C(=O)N[C@H](C(=O)O)[C@@H](C)O [IFYT] (H-IFYT-OH)	60000	–	–	–	State [1, 3]: gel; GELATION ([1]; peptide concentration 60 mM): 1; hydrogel formation (in words) [1]: hydrogels; Morphology ([2]; line of the table gives 60 mM): sheet; morphology by TEM (in words) ([2]; aqueous solution or hydrogel, negative staining): interlaced nanosheets
CC[C@H](C)[C@H](N)C(=O)N[C@@H](Cc1c[nH]cn1)C(=O)N[C@@H](Cc1ccccc1)C(=O)N[C@H](C(=O)O)C(C)C [IHFV] (H-IHFV-OH)	120000	sol	0	sphere	–
CC[C@H](C)[C@H](N)C(=O)N[C@H](C(=O)N[C@H](C(=O)N[C@H](C(=O)O)[C@@H](C)CC)[C@@H](C)CC)[C@@H](C)CC [IIII] (H-IIII-OH)	30000	–	–	–	State [1, 5]: gel; GELATION ([1]; peptide concentration 30 mM): 1; Morphology ([2]; line of the table gives 30 mM): needle
CC[C@H](C)[C@H](N)C(=O)N[C@H](C(=O)N[C@H](C(=O)N[C@@H](CCCNC(=N)N)C(=O)O)[C@@H](C)CC)[C@@H](C)CC [IIIR] (H-IIIR-OH)	120000	suspension	0	aggregates	–
CC[C@H](C)[C@H](N)C(=O)N[C@@H](CC(C)C)C(=O)N[C@H](C(=O)N[C@H](C(=O)O)C(C)C)C(C)C [ILVV] (H-ILVV-OH)	30000	–	–	–	State [1, 5]: gel; GELATION ([1]; peptide concentration 30 mM): 1; Morphology ([2]; line of the table gives 30 mM): aggregates
CC[C@H](C)[C@H](N)C(=O)N[C@@H](CCSC)C(=O)N[C@H](C(=O)N[C@H](C(=O)O)C(C)C)C(C)C [IMVV] (H-IMVV-OH)	30000	–	–	–	State [1, 5]: gel; GELATION ([1]; peptide concentration 30 mM): 1; hydrogel formation (in words) [1]: can form hydrogel; Morphology ([2]; line of the table gives 30 mM): aggregates
CC[C@H](C)[C@H](N)C(=O)N[C@@H](CCC(N)=O)C(=O)N[C@H](C(=O)N[C@H](C(=O)O)[C@@H](C)CC)[C@@H](C)CC [IQII] (H-IQII-OH)	60000	–	–	–	State [1, 3]: gel; GELATION ([1]; peptide concentration 60 mM): 1; Morphology ([2]; line of the table gives 60 mM): hybrid(sphere+fibre)
CC[C@H](C)[C@H](N)C(=O)N[C@@H](CCCNC(=N)N)C(=O)N[C@H](C(=O)N[C@@H](Cc1c[nH]c2ccccc12)C(=O)O)C(C)C [IRVW] (H-IRVW-OH)	120000	suspension	0	sphere	–
CC[C@H](C)[C@H](N)C(=O)N[C@H](C(=O)N[C@@H](Cc1ccccc1)C(=O)N[C@@H](Cc1c[nH]c2ccccc12)C(=O)O)C(C)C [IVFW] (H-IVFW-OH)	120000	gel	1	sphere	–
CC[C@H](C)[C@H](N)C(=O)N[C@H](C(=O)N[C@H](C(=O)N[C@@H](Cc1ccccc1)C(=O)O)[C@@H](C)CC)C(C)C [IVIF] (H-IVIF-OH)	30000	–	–	–	State [1, 5]: gel; GELATION ([1]; peptide concentration 30 mM): 1; Morphology ([2]; line of the table gives 30 mM): sphere
CC[C@H](C)[C@H](N)C(=O)N[C@H](C(=O)N[C@H](C(=O)N[C@H](C(=O)O)[C@@H](C)CC)[C@@H](C)CC)C(C)C [IVII] (H-IVII-OH)	30000	–	–	–	State [1, 5]: gel; GELATION ([1]; peptide concentration 30 mM): 1; Morphology ([2]; line of the table gives 30 mM): sheet
CC[C@H](C)[C@H](N)C(=O)N[C@H](C(=O)N[C@H](C(=O)N[C@@H](Cc1ccc(O)cc1)C(=O)O)[C@@H](C)CC)C(C)C [IVIY] (H-IVIY-OH)	60000	–	–	–	State [1, 3]: gel; GELATION ([1]; peptide concentration 60 mM): 1; Morphology ([2]; line of the table gives 60 mM): aggregates
CC[C@H](C)[C@H](N)C(=O)N[C@@H](Cc1c[nH]c2ccccc12)C(=O)N[C@H](C(=O)N[C@H](C(=O)O)[C@@H](C)CC)[C@@H](C)CC [IWII] (H-IWII-OH)	120000	suspension	0	aggregates	EXP ([1]; experimental gelation result of the synthesized peptide): 0
CC[C@H](C)[C@H](N)C(=O)N[C@@H](Cc1c[nH]c2ccccc12)C(=O)N1CCC[C@H]1C(=O)N[C@@H](Cc1c[nH]c2ccccc12)C(=O)O [IWPW] (H-IWPW-OH)	120000	precipitate	0	aggregates	–
CC(C)C[C@H](NC(=O)[C@H](CC(C)C)NC(=O)[C@H](Cc1ccccc1)NC(=O)[C@@H](N)CCCCN)C(=O)O [KFLL] (H-KFLL-OH)	120000	sol	–	aggregates	–
NCCCC[C@H](NC(=O)[C@H](CCCCN)NC(=O)[C@H](CCCCN)NC(=O)[C@@H](N)CCCCN)C(=O)O [KKKK] (H-KKKK-OH)	120000	sol	0	blank	–
CC(C)C[C@H](NC(=O)[C@H](CC(C)C)NC(=O)[C@@H](N)CCCCN)C(=O)N[C@@H](Cc1ccccc1)C(=O)O [KLLF]	30000	–	–	–	State [1, 5]: gel; GELATION ([1]; peptide concentration 30 mM): 1; Morphology ([2]; line of the table gives 30 mM): particle
CSCC[C@H](NC(=O)[C@@H](N)CCCCN)C(=O)N[C@@H](CC(C)C)C(=O)N[C@@H](Cc1ccccc1)C(=O)O [KMLF] (H-KMLF-OH)	120000	suspension	0	aggregates	–
CC(C)C[C@H](NC(=O)[C@H](Cc1c[nH]c2ccccc12)NC(=O)[C@@H](NC(=O)[C@@H](N)CCCCN)C(C)C)C(=O)O [KVWL] (H-KVWL-OH)	60000	–	–	–	State [1, 3]: gel; GELATION ([1]; peptide concentration 60 mM): 1; Morphology ([2]; line of the table gives 60 mM): fibre
CC(C)C[C@H](NC(=O)[C@H](C)NC(=O)[C@@H](N)CC(C)C)C(=O)N[C@@H](CCCNC(=N)N)C(=O)O [LALR] (H-LALR-OH)	120000	suspension	0	aggregates	–
CC(C)C[C@H](N)C(=O)N[C@@H](Cc1ccccc1)C(=O)N[C@@H](Cc1c[nH]c2ccccc12)C(=O)N[C@@H](CO)C(=O)O [LFWS] (H-LFWS-OH)	120000	gel	1	sphere	–
CC(C)C[C@H](N)C(=O)NCC(=O)N[C@H](C(=O)N[C@@H](Cc1ccccc1)C(=O)O)C(C)C [LGVF] (H-LGVF-OH)	120000	sol	0	fibre	–
